Measured values taken from ChEMBL document CHEMBL4138146, “A Schmidt rearrangement-mediated synthesis of novel tetrahydro-benzo[1,4]diazepin-5-ones as potential anticancer and antiprotozoal agents” (Eur J Med Chem, 2017).

What was measured:
Assay type in all cases: functional
CCRF-CEM = assay: Growth inhibition of human CCRF-CEM cells incubated for 48 hrs by sulforhodamine B assay
HL-60(TB) = assay: Growth inhibition of human HL-60(TB) cells incubated for 48 hrs by sulforhodamine B assay; conditions: HL-60, 48 h
K562 = assay: Growth inhibition of human K562 cells incubated for 48 hrs by sulforhodamine B assay; conditions: K562, 48 h
MOLT-4 = assay: Growth inhibition of human MOLT4 cells incubated for 48 hrs by sulforhodamine B assay; conditions: MOLT-4, 48 h; for CC50: read-out: LC50 (the source's name)
RPMI-8226 = assay: Growth inhibition of human RPMI8226 cells incubated for 48 hrs by sulforhodamine B assay; conditions: RPMI-8226, 48 h; for CC50: read-out: LC50 (the source's name)
SR = assay: Growth inhibition of human SR cells incubated for 48 hrs by sulforhodamine B assay
HOP-92 = assay: Growth inhibition of human HOP92 cells incubated for 48 hrs by sulforhodamine B assay; conditions: HOP-92, 48 h
NCI-H226 = assay: Growth inhibition of human NCI-H226 cells incubated for 48 hrs by sulforhodamine B assay; conditions: NCI-H226, 48 h; for CC50: read-out: LC50 (the source's name)
NCI-H322M = assay: Growth inhibition of human NCI-H322M cells incubated for 48 hrs by sulforhodamine B assay
NCI-H460 = assay: Growth inhibition of human NCI-H460 cells incubated for 48 hrs by sulforhodamine B assay; conditions: NCI-H460, 48 h
HCC 2998 = assay: Growth inhibition of human HCC2998 cells incubated for 48 hrs by sulforhodamine B assay; conditions: HCC 2998, 48 h
HCT-116 = assay: Growth inhibition of human HCT116 cells incubated for 48 hrs by sulforhodamine B assay; conditions: HCT-116, 48 h
HCT-15 = assay: Growth inhibition of human HCT15 cells incubated for 48 hrs by sulforhodamine B assay; conditions: HCT-15, 48 h; for CC50: read-out: LC50 (the source's name)
KM12 = assay: Growth inhibition of human KM12 cells incubated for 48 hrs by sulforhodamine B assay; conditions: KM12, 48 h
SW-620 = assay: Growth inhibition of human SW620 cells incubated for 48 hrs by sulforhodamine B assay; conditions: SW-620, 48 h
SF-268 = assay: Growth inhibition of human SF268 cells incubated for 48 hrs by sulforhodamine B assay; conditions: SF-268, 48 h
SF-295 = assay: Growth inhibition of human SF295 cells incubated for 48 hrs by sulforhodamine B assay; conditions: SF-295, 48 h
SNB-19 = assay: Growth inhibition of human SNB19 cells incubated for 48 hrs by sulforhodamine B assay; conditions: SNB-19, 48 h
U-251 = assay: Growth inhibition of human U251 cells incubated for 48 hrs by sulforhodamine B assay; conditions: U-251, 48 h
Malme-3M = assay: Growth inhibition of human MALME-3M cells incubated for 48 hrs by sulforhodamine B assay
M14 = assay: Growth inhibition of human M14 cells incubated for 48 hrs by sulforhodamine B assay; conditions: M14, 48 h
SK-MEL-28 = assay: Growth inhibition of human SK-MEL-28 cells incubated for 48 hrs by sulforhodamine B assay; conditions: SK-MEL-28, 48 h; for CC50: read-out: LC50 (the source's name)
SK-MEL-5 = assay: Growth inhibition of human SK-MEL-5 cells incubated for 48 hrs by sulforhodamine B assay; conditions: SK-MEL-5, 48 h; for CC50: read-out: LC50 (the source's name)
IGROV-1 = assay: Growth inhibition of human IGROV1 cells incubated for 48 hrs by sulforhodamine B assay; conditions: IGROV-1, 48 h; for CC50: read-out: LC50 (the source's name)
OVCAR-3 = assay: Growth inhibition of human OVCAR3 cells incubated for 48 hrs by sulforhodamine B assay; conditions: OVCAR-3, 48 h
OVCAR-5 = assay: Growth inhibition of human OVCAR5 cells incubated for 48 hrs by sulforhodamine B assay; conditions: OVCAR-5, 48 h; for CC50: read-out: LC50 (the source's name)
NCI/ADR-RES = assay: Growth inhibition of human NCI/ADR-RES cells incubated for 48 hrs by sulforhodamine B assay; conditions: for CC50: read-out: LC50 (the source's name)
SK-OV-3 = assay: Growth inhibition of human SKOV3 cells incubated for 48 hrs by sulforhodamine B assay; conditions: SK-OV-3, 48 h; for CC50: read-out: LC50 (the source's name)
CAKI-1 = assay: Growth inhibition of human Caki1 cells incubated for 48 hrs by sulforhodamine B assay; conditions: CAKI-1, 48 h; for CC50: read-out: LC50 (the source's name)
RXF 393 = assay: Growth inhibition of human RXF393 cells incubated for 48 hrs by sulforhodamine B assay; conditions: RXF 393, 48 h
SN12C = assay: Growth inhibition of human SN12C cells incubated for 48 hrs by sulforhodamine B assay
UO-31 = assay: Growth inhibition of human UO31 cells incubated for 48 hrs by sulforhodamine B assay; conditions: UO-31, 48 h
DU-145 = assay: Growth inhibition of human DU145 cells incubated for 48 hrs by sulforhodamine B assay; conditions: DU-145, 48 h; for CC50: read-out: LC50 (the source's name)
MDA-MB-231 = assay: Growth inhibition of human MDA-MB-231 cells incubated for 48 hrs by sulforhodamine B assay; conditions: MDA-MB-231, 48 h
BT-549 = assay: Growth inhibition of human BT549 cells incubated for 48 hrs by sulforhodamine B assay; conditions: BT-549, 48 h
T47D = assay: Growth inhibition of human T47D cells incubated for 48 hrs by sulforhodamine B assay
MDA-MB-468 = assay: Growth inhibition of human MDA-MB-468 cells incubated for 48 hrs by sulforhodamine B assay; conditions: MDA-MB-468, 48 h
[1] = read-out: LC50 (the source's name)

SMILES: COc1cccc2c1C(=O)c1c(O)c3c(c(O)c1C2=O)C[C@@](O)(C(=O)CO)C[C@@H]3O[C@H]1C[C@H](N)[C@H](O)[C@H](C)O1 [DOXORUBICIN]
- GI50 (CCRF-CEM): 0.08 µM
- GI50 (HL-60(TB)): 0.12 µM
- GI50 (K562): 0.19 µM
- GI50 (MOLT-4): 0.03 µM
- CC50 (MOLT-4): 100 µM
- GI50 (RPMI-8226): 0.08 µM
- CC50 (RPMI-8226): 100 µM
- GI50 (SR): 0.03 µM
- GI50 (HOP-92): 0.1 µM
- GI50 (NCI-H226): 0.05 µM
- CC50 (NCI-H226): 6.4 µM
- GI50 (NCI-H322M): 0.54 µM
- GI50 (NCI-H460): 0.02 µM
- GI50 (HCC 2998): 0.26 µM
- GI50 (HCT-116): 0.08 µM
- CC50 (HCT-15): 100 µM
- GI50 (KM12): 0.27 µM
- GI50 (SW-620): 0.09 µM
- GI50 (SF-268): 0.1 µM
- GI50 (SF-295): 0.1 µM
- GI50 (SNB-19): 0.04 µM
- GI50 (U-251): 0.04 µM
- GI50 (Malme-3M): 0.12 µM
- GI50 (M14): 0.18 µM
- GI50 (SK-MEL-28): 0.08 µM
- CC50 (SK-MEL-28): 0.49 µM
- GI50 (SK-MEL-5): 0.14 µM
- CC50 (SK-MEL-5): 8.15 µM
- GI50 (IGROV-1): 0.17 µM
- CC50 (IGROV-1): 100 µM
- GI50 (OVCAR-3): 0.39 µM
- GI50 (OVCAR-5): 0.41 µM
- CC50 (OVCAR-5): 100 µM
- CC50 (NCI/ADR-RES): 100 µM
- GI50 (SK-OV-3): 0.22 µM
- CC50 (SK-OV-3): 100 µM
- GI50 (CAKI-1): 0.95 µM
- CC50 (CAKI-1): 100 µM
- GI50 (RXF 393): 0.1 µM
- GI50 (SN12C): 0.07 µM
- GI50 (UO-31): 0.49 µM
- GI50 (DU-145): 0.11 µM
- CC50 (DU-145): 100 µM
- GI50 (MDA-MB-231): 0.51 µM
- GI50 (BT-549): 0.23 µM
- GI50 (T47D): 0.06 µM
- GI50 (MDA-MB-468): 0.05 µM

SMILES: CCCCOc1nc2ccccc2cc1C1CNC(=O)c2ccccc2N1 (stereo not drawn)
- GI50 (CCRF-CEM): 2.95 µM
- LC50 (concentration killing 50% of cells) (CCRF-CEM): > 100 µM
- TGI (CCRF-CEM): 24.9 µM
- GI50 (HL-60(TB)): 0.047 µM
- LC50 (HL-60(TB)): 65.4 µM
- TGI (HL-60(TB)): 0.384 µM
- GI50 (K562): 0.84 µM
- LC50 (K562): > 100 µM
- TGI (K562): 16.4 µM
- GI50 (MOLT-4): 3.05 µM
- TGI (MOLT-4): 13.6 µM
- CC50 (MOLT-4): > 100 µM
- GI50 (RPMI-8226): 2.86 µM
- TGI (RPMI-8226): 25.1 µM
- CC50 (RPMI-8226): > 100 µM
- GI50 (SR): 1.26 µM
- LC50 (SR): > 100 µM
- TGI (SR): 10.7 µM
- GI50 (HOP-92): 1.92 µM
- TGI (HOP-92): 22.6 µM
- CC50 (HOP-92; [1]): > 100 µM
- GI50 (NCI-H226): 3.13 µM
- TGI (NCI-H226): 14.9 µM
- CC50 (NCI-H226): > 100 µM
- GI50 (NCI-H322M): 4.5 µM
- TGI (NCI-H322M): 45.5 µM
- CC50 (NCI-H322M; [1]): > 100 µM
- GI50 (NCI-H460): 3.11 µM
- LC50 (concentration killing 50% of cells) (NCI-H460): 51.1 µM
- TGI (NCI-H460): 11.6 µM
- GI50 (HCC 2998): 3.58 µM
- TGI (HCC 2998): 26.7 µM
- CC50 (HCC 2998; [1]): > 100 µM
- GI50 (HCT-116): 1.84 µM
- TGI (HCT-116): 6.26 µM
- CC50 (HCT-116; [1]): 44.7 µM
- GI50 (HCT-15): 1.92 µM
- TGI (HCT-15): 10.8 µM
- CC50 (HCT-15): 48.6 µM
- GI50 (KM12): 3.3 µM
- TGI (KM12): 80.6 µM
- CC50 (KM12; [1]): > 100 µM
- GI50 (SW-620): 2.19 µM
- TGI (SW-620): 27.1 µM
- CC50 (SW-620; [1]): > 100 µM
- GI50 (SF-268): 4.14 µM
- TGI (SF-268): > 100 µM
- CC50 (SF-268; [1]): > 100 µM
- GI50 (SF-295): 1.4 µM
- TGI (SF-295): 9.82 µM
- CC50 (SF-295; [1]): 52.4 µM
- GI50 (SNB-19): 6.13 µM
- TGI (SNB-19): 75.3 µM
- CC50 (SNB-19; [1]): > 100 µM
- GI50 (U-251): 3.03 µM
- TGI (U-251): 13.7 µM
- CC50 (U-251; [1]): 50.1 µM
- GI50 (Malme-3M): 3.58 µM
- TGI (Malme-3M): 27 µM
- CC50 (Malme-3M; [1]): 92 µM
- GI50 (M14): 1.54 µM
- TGI (M14): 11.8 µM
- CC50 (M14; [1]): 92.2 µM
- GI50 (SK-MEL-28): 5.89 µM
- TGI (SK-MEL-28): 27.3 µM
- CC50 (SK-MEL-28): 86.1 µM
- GI50 (SK-MEL-5): 2.34 µM
- TGI (SK-MEL-5): 20 µM
- CC50 (SK-MEL-5): > 100 µM
- GI50 (IGROV-1): 4.49 µM
- TGI (IGROV-1): 23.9 µM
- CC50 (IGROV-1): 98.5 µM
- GI50 (OVCAR-3): 1.31 µM
- TGI (OVCAR-3): 3.53 µM
- CC50 (OVCAR-3; [1]): 9.4 µM
- GI50 (OVCAR-5): 6.42 µM
- TGI (OVCAR-5): 41 µM
- CC50 (OVCAR-5): > 100 µM
- GI50 (NCI/ADR-RES): 1.74 µM
- TGI (NCI/ADR-RES): 6.7 µM
- CC50 (NCI/ADR-RES): 97 µM
- GI50 (SK-OV-3): 2.38 µM
- TGI (SK-OV-3): 9.96 µM
- CC50 (SK-OV-3): > 100 µM
- GI50 (CAKI-1): 2.83 µM
- TGI (CAKI-1): 34.4 µM
- CC50 (CAKI-1): > 100 µM
- GI50 (RXF 393): 2.5 µM
- TGI (RXF 393): 12.1 µM
- CC50 (RXF 393; [1]): 75.4 µM
- GI50 (SN12C): 3.34 µM
- TGI (SN12C): 18.2 µM
- CC50 (SN12C; [1]): 90.6 µM
- GI50 (UO-31): 2.41 µM
- TGI (UO-31): 20.9 µM
- CC50 (UO-31; [1]): 67.2 µM
- GI50 (DU-145): 3.16 µM
- TGI (DU-145): 12.9 µM
- CC50 (DU-145): > 100 µM
- GI50 (MDA-MB-231): 3.83 µM
- TGI (MDA-MB-231): 20.9 µM
- CC50 (MDA-MB-231; [1]): 90.3 µM
- GI50 (BT-549): 5.22 µM
- TGI (BT-549): 38.8 µM
- CC50 (BT-549; [1]): > 100 µM
- GI50 (T47D): 5.32 µM
- TGI (T47D): > 100 µM
- CC50 (T47D; [1]): > 100 µM
- GI50 (MDA-MB-468): 1.61 µM
- TGI (MDA-MB-468): 7.34 µM
- CC50 (MDA-MB-468; [1]): > 100 µM
